Consider one compound from US9902735B2, “Heteroaryl substituted compounds as RORγ inhibitors” (GlaxoSmithKline Intellectual Property Developement Limited, priority 2014, dated 2018).

For this assay, the target named is T1, RORγ (Homo sapiens, UniProt P51449).
T1 construct: expressed in transfected cells
T1 sequence (P51449 1-497 isoform P51449-2): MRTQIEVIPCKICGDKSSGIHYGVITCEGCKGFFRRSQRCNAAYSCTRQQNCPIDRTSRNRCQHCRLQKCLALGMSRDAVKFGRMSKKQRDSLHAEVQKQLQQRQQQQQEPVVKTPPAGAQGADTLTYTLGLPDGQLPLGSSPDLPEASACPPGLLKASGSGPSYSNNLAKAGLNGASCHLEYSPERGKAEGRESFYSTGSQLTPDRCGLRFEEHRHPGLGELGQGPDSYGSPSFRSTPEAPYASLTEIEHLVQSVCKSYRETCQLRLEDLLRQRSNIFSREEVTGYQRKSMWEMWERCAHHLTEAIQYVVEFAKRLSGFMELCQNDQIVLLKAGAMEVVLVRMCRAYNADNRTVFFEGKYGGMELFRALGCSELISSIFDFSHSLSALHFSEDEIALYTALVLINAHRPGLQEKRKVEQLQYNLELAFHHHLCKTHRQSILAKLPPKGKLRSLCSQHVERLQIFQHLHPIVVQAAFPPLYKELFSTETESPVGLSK
The experiment in a line: Jurkat cell luciferase assay (human IL17 promoter reporter). Format: cell-based. The following applies: mean of multiple test results if tested more than once; read-out: pIC50 in the Jurkat cell luciferase assay (converted). From the text: RORγ is known to bind to a CNS (conserved non-coding sequences) enhancer element in the IL17 promoter. In this assay, RORγ activity is indirectly assessed using a luciferase reporter construct which contains the human IL17 promoter having the RORγ-specific CNS enhancer element. Inhibition of RORγ activity by a compound will result in a decrease in luciferase activity of Jurkat cells transfected with the reporter construct.
For the luciferase reporter plasmid, the 3 Kb human IL17 promoter containing the RORγ-specific CNS enhancer element was PCR amplified from human genomic DNA and cloned into a pGL4-Luc2/hygro reporter plasmid sequentially as XhoI-HindIII (1.1 Kb) and KpnI-XhoI (1.9 Kb) fragments. For the 1.1 Kb fragment, PCR was used to amplify human IL17 proximal promoter region from genomic DNA of 293T cells using primers as follows: forward primer, 5′-[…]-3′ (XhoI site is underlined) and reverse primer, 5′-[…]-3′ (HindIII site is underlined). The 1.1 kb DNA bands were excised, purified, and inserted into pMD19-T Simple Vector (Takara). […]
Compounds were dissolved in DMSO at three concentrations, 10 mM, 400 uM and 16 uM, and were dispensed into 384-wells assay plate at 40 nl, 12.5 nl, 5 nl respectively. The volume was adjusted with pure DMSO to a give a final uniform volume of 40 nl Jurkat cells described above were counted and centrifuged. […]

`Cc1ncc(C(=O)Nc2cc(Cl)cc(CN3CCN(C(=O)CC4CC4)[C@@H](C)C3)c2C)cc1F` [Example 80, (S)—N-(5-chloro-3-((4-(2-cyclopropylacetyl)-3-methylpiperazin-1-yl)methyl)-2-methylphenyl)-5-fluoro-6-methylnicotinamide]: the IC50 was about 6.31 nM.
